We go through 1 molecule from paper PMC12376128, “In vitro and In Vivo Drug Metabolism Analysis of BPI-460372 - A Covalent TEAD1/3/4 Inhibitor” (Current Drug Metabolism, 2025).

For one series, the target named is T1, recombinant human CYP3A4 (Homo sapiens, UniProt P08684).
T1 construct: purchased Cypex Ltd. (Dundee, UK)
Briefly: Metabolic stability in recombinant human CYP isoenzymes. Type of series: in vitro ADME. As to conditions: rCYP3A4 100 pmol P450/mL, 1 µM. Here is the method: (§1) To identify the specific isoform that participates in the metabolism of BPI-460372, 1 µM BPI-460372 or positive control substrates were mixed with recombinant human CYP1A2, 2B6, 2C8, 2C9, 2C19, 2D6 or 3A4 (100 pmol P450·mL^-1), and the reaction was started by the addition of NADPH (1 mM final concentration) after 5-minute preincubation at 37°C. Aliquots were maintained in acetonitrile containing IS at different time points at 0 min, 5 min, 10 min, 20 min, 30 min, and 60 min. All incubations were performed in triplicate, and the concentration of the supernatant was determined by LC-MS/MS.
(§2) A substrate depletion approach was employed to determine the intrinsic clearance (CLint (rCYPj)) for each isoform. The contribution of each isoform was estimated using equations 2 and 3. CYPj abundance was evaluated as the abundance (CYPj) of each isoform in HLMs (pmol/mg protein).

For another series, the target named is T2, recombinant human CYP2C8 (Homo sapiens, UniProt P10632).
T2 construct: purchased Cypex Ltd. (Dundee, UK)
T2 sequence (P10632 1-490): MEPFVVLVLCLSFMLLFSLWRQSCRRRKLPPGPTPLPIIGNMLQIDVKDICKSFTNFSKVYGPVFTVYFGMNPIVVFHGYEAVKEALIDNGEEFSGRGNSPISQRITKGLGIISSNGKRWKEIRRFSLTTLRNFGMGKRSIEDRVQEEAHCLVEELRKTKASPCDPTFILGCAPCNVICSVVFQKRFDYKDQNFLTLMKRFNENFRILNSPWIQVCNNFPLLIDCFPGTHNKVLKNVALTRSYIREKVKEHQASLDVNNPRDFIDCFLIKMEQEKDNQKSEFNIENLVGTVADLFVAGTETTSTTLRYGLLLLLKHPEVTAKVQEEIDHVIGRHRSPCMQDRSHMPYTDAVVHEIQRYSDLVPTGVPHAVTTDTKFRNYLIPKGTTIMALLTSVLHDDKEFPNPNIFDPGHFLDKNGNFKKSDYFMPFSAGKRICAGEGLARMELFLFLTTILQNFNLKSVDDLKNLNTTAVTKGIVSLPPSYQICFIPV
The series is described as above. Type of series: in vitro ADME. As to conditions: rCYP2C8 100 pmol P450/mL, 1 µM. As to the method:
as §1, §2

For series [1], the system named is cysteine S-conjugate β-lyase. Briefly: Effect of cysteine S-conjugate β-lyase inhibitor AOAA on the metabolism of BPI-460372 (rat urine). As to conditions: 20 mg/kg BPI-460372 + 100 mg/kg AOAA, once daily 21 days, urine 0-48 h on day 21.
Method: To investigate the effect of cysteine S-conjugate β-lyase on the metabolism of BPI-460372, SD rats were treated with 20 mg/kg BPI-460372 alone (n=3, male) or 20 mg/kg BPI-460372 coadministration with 100 mg/kg cysteine S-conjugate β-lyase inhibitor AOAA (n=3, male), once daily for 21 consecutive days. On day 21, urine samples were collected at 0-8, 8-24 and 24-48 h. The same percentage of urine samples from each rat was taken at these three time intervals and mixed. The samples were analyzed by LC-MS/MS and then semi-quantified using the peak area ratio of analyte versus IS.
A short description of another series: Stability in plasma. Type of series: in vitro ADME. As to conditions: mouse plasma, 37°C, 4 h.
The nature of the next series: In vivo clearance. As to conditions: monkeys.
The next series has as its system CYP3A4. Briefly: Metabolic stability in HLMs with or without specific CYP inhibitor (ketoconazole). Type of series: in vitro ADME, human. As to conditions: HLMs 1 mg protein/mL, substrate 1 μM, ketoconazole 20 µM. As to the method: (§3) Before starting the experiments, the HLMs were thawed gently on ice. Metabolic stability incubations were performed at 37 °C. The incubations contained 100 mM phosphate buffer saline (PBS, pH 7.4), HLMs (1 mg protein·mL^-1), dimethyl sulfoxide (DMSO, blank control) or a selective CYP inhibitor, and BPI-460372 or positive control substrates (final incubation concentration, 1 μM). The incubation process started with the addition of NADPH (1 mM final concentration) after a 5-minute preincubation period. The chemical inhibitors were as follows: a-naphthoflavone (2 µM) for CYP1A2, ticlopidine (20 µM) for 2B6, quercetin (20 µM) for CYP2C8, sulfaphenazole (20 µM) for CYP2C9, ticlopidine (200 µM) for CYP2C19, quinidine (20 µM) for CYP2D6, and ketoconazole (20 µM) for CYP3A [9]. Aliquots were maintained in acetonitrile containing internal standard (IS) at various time points, such as 0 min, 5 min, 10 min, 20 min, 30 min, and 60 min. All incubations were performed in triplicate, and the concentration in the supernatant was determined by liquid chromatography-tandem mass spectrometry (LC-MS/MS).
(§4) The elimination rate constant k (min^-1) was obtained by linear regression from the natural logarithm of the […] of the parent drug and the incubation time. The inhibition rate was calculated using equation 1 [10]: […]

The target of another series is T3, CYP2B6 (Homo sapiens, UniProt P20813).
T3 construct: HLMs (1 mg protein·mL^-1); tissue BioIVT; host or cells: pooled human liver microsomes
T3 sequence (P20813 1-491): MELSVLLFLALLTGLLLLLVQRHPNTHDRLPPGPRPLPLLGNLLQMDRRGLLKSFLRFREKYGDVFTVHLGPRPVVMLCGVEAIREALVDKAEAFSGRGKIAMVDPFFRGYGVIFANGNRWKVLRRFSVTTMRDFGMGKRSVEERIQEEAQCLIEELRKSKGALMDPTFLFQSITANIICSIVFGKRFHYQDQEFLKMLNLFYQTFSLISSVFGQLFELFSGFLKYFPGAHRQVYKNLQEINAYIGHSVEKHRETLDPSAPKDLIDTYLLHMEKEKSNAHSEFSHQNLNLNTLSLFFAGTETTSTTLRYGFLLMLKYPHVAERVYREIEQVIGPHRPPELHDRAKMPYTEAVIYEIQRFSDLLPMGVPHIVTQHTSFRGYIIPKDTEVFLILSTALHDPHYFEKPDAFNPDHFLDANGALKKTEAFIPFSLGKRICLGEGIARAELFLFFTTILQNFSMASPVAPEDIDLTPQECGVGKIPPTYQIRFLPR
Put plainly: Metabolic stability in HLMs with or without specific CYP inhibitor (ticlopidine 20 µM). Type of series: in vitro ADME. As to conditions: HLMs 1 mg protein/mL, substrate 1 μM. Here is the method:
as §3, with “The incubations contained 100 mM phosphate buffer saline (PBS, pH 7.4), HLMs (1 mg protein·mL^-1), dimethyl sulfoxide (DMSO, blank control) or a selective CYP inhibitor, and BPI-460372 or positive control substrates (final incubation concentration, 1 μM).” left out
as §4

For another series, the system named is dog hepatocytes. Put plainly: Metabolism and metabolite formation in hepatocytes. It is filed as in vitro ADME, beagle dog. As to conditions: beagle dog hepatocytes, 10 µM BPI-460372, 4 h incubation. An excerpt: All the samples were duplicates.

T1 sequence (P08684 whole entry): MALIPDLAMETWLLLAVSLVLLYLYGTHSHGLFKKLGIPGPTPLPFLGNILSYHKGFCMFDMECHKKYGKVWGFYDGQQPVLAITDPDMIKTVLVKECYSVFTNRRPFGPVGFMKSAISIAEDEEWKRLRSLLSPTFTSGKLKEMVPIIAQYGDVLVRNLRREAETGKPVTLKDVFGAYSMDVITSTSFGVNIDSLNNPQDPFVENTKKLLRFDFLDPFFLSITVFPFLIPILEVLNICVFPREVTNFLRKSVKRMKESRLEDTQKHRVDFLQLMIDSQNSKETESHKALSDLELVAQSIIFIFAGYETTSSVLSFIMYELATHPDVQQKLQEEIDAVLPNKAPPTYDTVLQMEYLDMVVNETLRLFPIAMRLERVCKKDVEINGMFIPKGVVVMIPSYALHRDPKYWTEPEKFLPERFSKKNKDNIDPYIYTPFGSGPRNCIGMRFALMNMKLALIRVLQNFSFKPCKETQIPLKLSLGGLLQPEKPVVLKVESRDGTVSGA

As to `C=C(F)C(=O)N1CC(n2c(=O)n(-c3ccc(C(F)(F)F)cc3)c3nccnc32)C1` [BPI-460372], the Contribution on recombinant human CYP3A4 is recorded as 28.3%; at recombinant human CYP2C8, 8.8%. In addition, the “Area ratio in rat urine, mean (%CV)” value in series [1] is 1.48 (69). Also, in “Stability in plasma”, the Stability in plasma entry was “stable”. The Clearance in vivo entry in “In vivo clearance” is “low clearance”. Also, the entries for the “Inhibition Rate” value in the series with CYP3A4 and on CYP2B6 were 9.1% and -11.5%, respectively. Further, in the series on dog hepatocytes, the “UV (314 nm) Peak Areas Relative Abundance” value is listed as 48.28%.
